These results are taken from paper PMC6321601 (Molecules, 2018).

The test system of assay [1] is L-O2 human normal liver cells. Description: MTT assay, toxicity against L-O2 normal cells. It counts as cell-based. The settings on record: 72 h incubation, mean of three independent experiments. The protocol: (§1) HepG-2 human hepatocellular carcinoma cells and L-O2 human normal liver cells were maintained in DMEM culture medium supplemented with 10% FBS at 37 °C under a humidified atmosphere with 5% CO2.
(§2) HepG-2 and L-O2 cells in logarithmic growth phase were seeded into a 96-well plate at 5 × 10^3/well/200 µL. After 12 h, compounds at different concentrations were added and incubated for 72 h at 37 °C, 5% CO2. Then, 20 µL MTT (5 mg/mL) was added into each well and incubated for 4 h. The supernatant was discarded, and the precipitate was dissolved with DMSO. The absorbance of the optical density (OD) at 570 nm was detected using a microplate reader and the IC50 was calculated with GraphPad Prism 5.
A general note: Formazan colour is commonly taken as a measure of viable cells.

The test system of assay [2] is HepG-2 human hepatocellular carcinoma cells. Description: MTT assay, proliferation of HepG-2 cells. It counts as cell-based. Conditions: mean of three independent experiments. The method, then: as §1, §2
[3] abbreviates: Homo sapiens, HepG2, 72 h incubation.

In the case of `COc1ccc(C(=O)O[C@@H]2C[C@@]3(C)C4CC=C5C(C[C@H](O)C(=O)C5(C)C)[C@]4(C)C(=O)C[C@]3(C)C2[C@@](C)(O)C(=O)/C=C/C(C)(C)OC(C)=O)cc1` (stereo partly drawn) [Compound 3l, (2S,9R,13R,14S,16R)-17-((R,E)-6-Acetoxy-2-hydroxy-6-methyl-3-oxohept-4-en-2-yl)-2-hydroxy-4,4,9,13,14-pentamethyl-3,11-dioxo-2,3,4,7,8,9,10,11,12,13,14,15,16,17-tetradecahydro-1H-cyclopenta[a]phenanthren-16-yl 4-methoxybenzoate], the figures for the concentration for half-maximal inhibition (IC50) in assay [1] (Homo sapiens) and in assay [2] (setting [3]) were 2470 ± 470 nM and 3710 ± 1690 nM, respectively.

In the case of `CC(=O)OC(C)(C)/C=C/C(=O)[C@](C)(O)C1[C@H](OC(=O)CCCN(C)C(=O)OC(C)(C)C)C[C@@]2(C)C3CC=C4C(C[C@H](O)C(=O)C4(C)C)[C@]3(C)C(=O)C[C@]12C` (stereo partly drawn) [Compound 3f, (2S,9R,13R,14S,16R)-17-((R,E)-6-Acetoxy-2-hydroxy-6-methyl-3-oxohept-4-en-2-yl)-2-hydroxy-4,4,9,13,14-pentamethyl-3,11-dioxo-2,3,4,7,8,9,10,11,12,13,14,15,16,17-tetradecahydro-1H-cyclopenta[a]phenanthren-16-yl 4-((tert-butoxycarbonyl)(methyl)amino)butanoate], the IC50 in assay [1] (Homo sapiens) is 410 ± 110 nM; in assay [2] (setting [3]), 930 ± 60 nM.

Consider “cucurbitacin B [Compound 1, reference compound]”, for which the IC50 in assay [1] worked out at 19 ± 3 nM; in assay [2] (72 h incubation), 60 ± 20 nM.

On to `CCC(=O)O[C@@H]1C[C@@]2(C)C3CC=C4C(C[C@H](O)C(=O)C4(C)C)[C@]3(C)C(=O)C[C@]2(C)C1[C@@](C)(O)C(=O)/C=C/C(C)(C)OC(C)=O` (stereo partly drawn) [Compound 3a, (2S,9R,13R,14S,16R)-17-((R,E)-6-Acetoxy-2-hydroxy-6-methyl-3-oxohept-4-en-2-yl)-2-hydroxy-4,4,9,13,14-pentamethyl-3,11-dioxo-2,3,4,7,8,9,10,11,12,13,14,15,16,17-tetradecahydro-1H-cyclopenta[a]phenanthren-16-yl propionate], for which the figures for the IC50 in assay [1] (Homo sapiens) and in assay [2] (setting [3]) were 1020 ± 580 nM and 1010 ± 40 nM, respectively.

Take `CC(=O)OC(C)(C)/C=C/C(=O)[C@](C)(O)C1[C@H](OC(=O)CCC(=O)OCC#CCOc2no[n+]([O-])c2S(=O)(=O)c2ccccc2)C[C@@]2(C)C3CC=C4C(CC(O)C(=O)C4(C)C)[C@]3(C)C(=O)C[C@]12C` (stereo partly drawn) [Compound 10m, 4-((4-((4-(((9R,13R,14S,16R)-17-((R,E)-6-Acetoxy-2-hydroxy-6-methyl-3-oxohept-4-en-2-yl)-2-hydroxy-4,4,9,13,14-pentamethyl-3,11-dioxo-2,3,4,7,8,9,10,11,12,13,14,15,16,17-tetradecahydro-1H-cyclopenta[a]phenanthren-16-yl)oxy)-4-oxobutanoyl)oxy)but-2-yn-1-yl)oxy)-3-(phenylsulfonyl)-1,2,5-oxadiazole 2-oxide]: the values for the 50% inhibitory concentration (IC50) in assay [1] (Homo sapiens) and in assay [2] (setting [3]) were 2940 ± 90 nM and 1350 ± 100 nM, respectively.

As to `CC(=O)OC(C)(C)/C=C/C(=O)[C@](C)(O)C1[C@H](OC(=O)CCC(=O)OCCCCOc2no[n+]([O-])c2S(=O)(=O)c2ccccc2)C[C@@]2(C)C3CC=C4C(CC(O)C(=O)C4(C)C)[C@]3(C)C(=O)C[C@]12C` (stereo partly drawn) [Compound 10c, 4-(4-((4-(((9R,13R,14S,16R)-17-((R,E)-6-Acetoxy-2-hydroxy-6-methyl-3-oxohept-4-en-2-yl)-2-hydroxy-4,4,9,13,14-pentamethyl-3,11-dioxo-2,3,4,7,8,9,10,11,12,13,14,15,16,17-tetradecahydro-1H-cyclopenta[a]phenanthren-16-yl)oxy)-4-oxobutanoyl)oxy)butoxy)-3-(phenylsulfonyl)-1,2,5-oxadiazole 2-oxide], the IC50 came to 2100 ± 1410 nM in assay [1] (Homo sapiens) and 520 ± 90 nM in assay [2] (setting [3]).

On to `CC(=O)OC(C)(C)/C=C/C(=O)[C@](C)(O)C1[C@H](OC(=O)CCC(=O)OCCCCCCCCCCOc2no[n+]([O-])c2S(=O)(=O)c2ccccc2)C[C@@]2(C)C3CC=C4C(CC(O)C(=O)C4(C)C)[C@]3(C)C(=O)C[C@]12C` (stereo partly drawn) [Compound 10i, 4-((10-((4-(((9R,13R,14S,16R)-17-((R,E)-6-Acetoxy-2-hydroxy-6-methyl-3-oxohept-4-en-2-yl)-2-hydroxy-4,4,9,13,14-pentamethyl-3,11-dioxo-2,3,4,7,8,9,10,11,12,13,14,15,16,17-tetradecahydro-1H-cyclopenta[a]phenanthren-16-yl)oxy)-4-oxobutanoyl)oxy)decyl)oxy)-3-(phenylsulfonyl)-1,2,5-oxadiazole 2-oxide], for which the values for the IC50 in assay [1] (Homo sapiens) and in assay [2] (setting [3]) were 3270 ± 430 nM and 6920 ± 750 nM, respectively.

For `CC(=O)OC(C)(C)/C=C/C(=O)[C@](C)(O)C1[C@H](OC(=O)CCC(=O)OCCCCCCCCCCCCOc2no[n+]([O-])c2S(=O)(=O)c2ccccc2)C[C@@]2(C)C3CC=C4C(CC(O)C(=O)C4(C)C)[C@]3(C)C(=O)C[C@]12C` (stereo partly drawn) [Compound 10k, 4-((12-((4-(((9R,13R,14S,16R)-17-((R,E)-6-Acetoxy-2-hydroxy-6-methyl-3-oxohept-4-en-2-yl)-2-hydroxy-4,4,9,13,14-pentamethyl-3,11-dioxo-2,3,4,7,8,9,10,11,12,13,14,15,16,17-tetradecahydro-1H-cyclopenta[a]phenanthren-16-yl)oxy)-4-oxobutanoyl)oxy)dodecyl)oxy)-3-(phenylsulfonyl)-1,2,5-oxadiazole 2-oxide], the half-inhibitory concentration (IC50) in assay [1] (Homo sapiens) and in assay [2] (setting [3]) was above 20000 nM in each case.

`CC(=O)OC(C)(C)/C=C/C(=O)[C@](C)(O)C1[C@H](OC(=O)CCC(=O)OCCCCCOc2no[n+]([O-])c2S(=O)(=O)c2ccccc2)C[C@@]2(C)C3CC=C4C(CC(O)C(=O)C4(C)C)[C@]3(C)C(=O)C[C@]12C` (stereo partly drawn) [Compound 10d, 4-((5-((4-(((9R,13R,14S,16R)-17-((R,E)-6-Acetoxy-2-hydroxy-6-methyl-3-oxohept-4-en-2-yl)-2-hydroxy-4,4,9,13,14-pentamethyl-3,11-dioxo-2,3,4,7,8,9,10,11,12,13,14,15,16,17-tetradecahydro-1H-cyclopenta[a]phenanthren-16-yl)oxy)-4-oxobutanoyl)oxy)pentyl)oxy)-3-(phenylsulfonyl)-1,2,5-oxadiazole 2-oxide]: the IC50 in assay [1] (Homo sapiens) came to 2620 ± 520 nM; in assay [2] (setting [3]), 640 ± 260 nM.

Turning to `CC(=O)OC(C)(C)/C=C/C(=O)[C@](C)(O)C1[C@H](OC(=O)/C=C/c2ccc(C#N)cc2)C[C@@]2(C)C3CC=C4C(C[C@H](O)C(=O)C4(C)C)[C@]3(C)C(=O)C[C@]12C` (stereo partly drawn) [Compound 3p, (2S,9R,13R,14S,16R)-17-((R,E)-6-Acetoxy-2-hydroxy-6-methyl-3-oxohept-4-en-2-yl)-2-hydroxy-4,4,9,13,14-pentamethyl-3,11-dioxo-2,3,4,7,8,9,10,11,12,13,14,15,16,17-tetradecahydro-1H-cyclopenta[a]phenanthren-16-yl (E)-3-(4-cyanophenyl)acrylate], the half-inhibitory concentration (IC50) was 1470 ± 360 nM in assay [1] (Homo sapiens) and 2340 ± 910 nM in assay [2] (setting [3]).

In the case of `CC(=O)OC(C)(C)/C=C/C(=O)[C@](C)(O)C1[C@H](OC(=O)C2CCC2)C[C@@]2(C)C3CC=C4C(CC(O)C(=O)C4(C)C)[C@]3(C)C(=O)C[C@]12C` (stereo partly drawn) [Compound 3b, (9R,13R,14S,16R)-17-((R,E)-6-Acetoxy-2-hydroxy-6-methyl-3-oxohept-4-en-2-yl)-2-hydroxy-4,4,9,13,14-pentamethyl-3,11-dioxo-2,3,4,7,8,9,10,11,12,13,14,15,16,17-tetradecahydro-1H-cyclopenta[a]phenanthren-16-yl cyclobutanecarboxylate], the IC50 is 520 ± 80 nM in assay [1] (Homo sapiens) and 540 ± 40 nM in assay [2] (setting [3]).

Consider `CC(=O)OC(C)(C)/C=C/C(=O)[C@](C)(O)C1[C@H](OC(=O)c2ccc(Cl)cc2)C[C@@]2(C)C3CC=C4C(C[C@H](O)C(=O)C4(C)C)[C@]3(C)C(=O)C[C@]12C` (stereo partly drawn) [Compound 3j, (2S,9R,13R,14S,16R)-17-((R,E)-6-Acetoxy-2-hydroxy-6-methyl-3-oxohept-4-en-2-yl)-2-hydroxy-4,4,9,13,14-pentamethyl-3,11-dioxo-2,3,4,7,8,9,10,11,12,13,14,15,16,17-tetradecahydro-1H-cyclopenta[a]phenanthren-16-yl 4-chlorobenzoate], for which the half-maximal inhibitory concentration (IC50) in assay [1] (Homo sapiens) is 3570 ± 2580 nM; in assay [2] (setting [3]) it was 4670 ± 280 nM.

For the molecule `CC(=O)OC(C)(C)/C=C/C(=O)[C@](C)(O)C1[C@H](OC(=O)c2ccc([N+](=O)[O-])cc2)C[C@@]2(C)C3CC=C4C(C[C@H](O)C(=O)C4(C)C)[C@]3(C)C(=O)C[C@]12C` (stereo partly drawn) [Compound 3m, (2S,9R,13R,14S,16R)-17-((R,E)-6-Acetoxy-2-hydroxy-6-methyl-3-oxohept-4-en-2-yl)-2-hydroxy-4,4,9,13,14-pentamethyl-3,11-dioxo-2,3,4,7,8,9,10,11,12,13,14,15,16,17-tetradecahydro-1H-cyclopenta[a]phenanthren-16-yl 4-nitrobenzoate], the half-maximal inhibitory concentration (IC50) is 740 ± 150 nM in assay [1] (Homo sapiens) and 920 ± 440 nM in assay [2] (setting [3]).

As to `CC(=O)OC(C)(C)/C=C/C(=O)[C@](C)(O)C1[C@H](OC(=O)CCC(=O)OCCCCCCCOc2no[n+]([O-])c2S(=O)(=O)c2ccccc2)C[C@@]2(C)C3CC=C4C(CC(O)C(=O)C4(C)C)[C@]3(C)C(=O)C[C@]12C` (stereo partly drawn) [Compound 10f, 4-((7-((4-(((9R,13R,14S,16R)-17-((R,E)-6-Acetoxy-2-hydroxy-6-methyl-3-oxohept-4-en-2-yl)-2-hydroxy-4,4,9,13,14-pentamethyl-3,11-dioxo-2,3,4,7,8,9,10,11,12,13,14,15,16,17-tetradecahydro-1H-cyclopenta[a]phenanthren-16-yl)oxy)-4-oxobutanoyl)oxy)heptyl)oxy)-3-(phenylsulfonyl)-1,2,5-oxadiazole 2-oxide], the results for the IC50 in assay [1] (Homo sapiens) and in assay [2] (setting [3]) were 3250 ± 400 nM and 830 ± 380 nM, respectively.

The IC50 is the point on the concentration scale where inhibition reaches its midpoint.
